Each compound was assayed against T1, GLUT1 (Homo sapiens, UniProt P11166) (assay: Indirect measurement of GLUT1 activity by quantification of intracellular ATP levels (glucose induced ATP increase)). Details: DLD1 cells; 0.1 mM glucose, 1 μM Rotenone, 15 min; CellTiter-Glo ATP readout; IC50 values standardized to cytochalasin B IC50 values; read-out: IC50 regarding glucose induced ATP increase (GLUT1 inhibition).
T1 sequence (P11166 1-492): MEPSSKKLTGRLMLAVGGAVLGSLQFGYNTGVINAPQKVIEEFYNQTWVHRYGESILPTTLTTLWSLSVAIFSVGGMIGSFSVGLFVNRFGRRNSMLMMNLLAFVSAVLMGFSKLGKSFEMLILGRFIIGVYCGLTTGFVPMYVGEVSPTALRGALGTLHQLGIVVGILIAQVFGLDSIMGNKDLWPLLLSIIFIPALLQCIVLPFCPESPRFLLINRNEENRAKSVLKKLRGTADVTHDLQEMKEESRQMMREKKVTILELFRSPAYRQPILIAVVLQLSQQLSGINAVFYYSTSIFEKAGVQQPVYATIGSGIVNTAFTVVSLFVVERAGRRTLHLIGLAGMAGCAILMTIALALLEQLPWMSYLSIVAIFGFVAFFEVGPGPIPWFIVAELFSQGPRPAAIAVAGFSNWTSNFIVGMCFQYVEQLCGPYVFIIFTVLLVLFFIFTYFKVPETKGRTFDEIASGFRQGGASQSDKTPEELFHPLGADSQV
Format: cell-based
Design: endogenous in cells; host or cells: DLD1 or CHO-K1
Outline: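 DLD1 or CHO-K1 cells were starved overnight in glucose-free medium with 1% FCS, then combined with an oxidative phosphorylation inhibitor. GLUT1 activity was read as glucose-induced ATP increase, GLUT2 as fructose-induced. Intracellular ATP was quantified by CellTiter-Glo luminescence.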

Compound	IC50 [nM]
COc1ccc2nc(C(N)=O)cc(C(=O)Nc3c(C(F)(F)F)nn(Cc4ccc(C#N)cc4)c3C)c2c1 [Example 245, N^4-[1-(4-cyanobenzyl)-5-methyl-3-(trifluoromethyl)-1H-pyrazol-4-yl]-6-methoxyquinoline-2,4-dicarboxamide]	0.3

Same assay, conditions: read-out: IC50 regarding glucose induced ATP increase (GLUT1 inhibition)

Compound	IC50 [nM]
Cc1nn(Cc2ccccc2C#N)c(C)c1NC(=O)c1cc(C(F)(F)F)nc2cc(F)c(F)cc12 [Example 175, N-[1-(2-cyanobenzyl)-3,5-dimethyl-1H-pyrazol-4-yl]-6,7-difluoro-2-(trifluoromethyl)quinoline-4-carboxamide]	70.7
Cc1c(NC(=O)c2cc(C(N)=O)nc3cccc(F)c23)c(C(F)(F)F)nn1Cc1cccc(S(C)(=O)=O)c1 [Example 1639]	273
Cc1ccc2nc(C)cc(C(=O)Nc3c(C)nn(Cc4ccc(F)cc4)c3C)c2c1 [Example 62, N-[1-(4-fluorobenzyl)-3,5-dimethyl-1H-pyrazol-4-yl]-2,6-dimethylquinoline-4-carboxamide]	127
Cc1nn(Cc2ccc(F)cc2)c(C(=O)N(C)C)c1NC(=O)c1cc(C(F)(F)F)nc2ccc(Br)cc12 [Example 1180]	231
Cc1ccc2nc(C)cc(C(=O)Nc3c(C)nn(CC4CCOCC4)c3C)c2c1 [Example 1176]	208
Cc1nn(CC2CCN(S(=O)(=O)c3ccccc3)CC2)c(C)c1NC(=O)c1cc(C(N)=O)nc2ccccc12 [Example 1519]	644
COc1cc(C(=O)Nc2c(C)nn(Cc3ccccc3C(F)(F)F)c2C)c2ccccc2n1 [Example 1305]	11100
Cc1nn(Cc2nc(C3CC3)no2)c(C)c1NC(=O)c1cc(C(N)=O)nc2ccccc12 [Example 1501]	73.7
Cc1nn(Cc2ccc(C(=O)N(C)C)cc2)c(C)c1NC(=O)c1cc(C(F)(F)F)nc2ccc(Br)cc12 [Example 143, 6-bromo-N-{1-[4-(dimethylcarbamoyl)benzyl]-3,5-dimethyl-1H-pyrazol-4-yl}-2-(trifluoromethyl)quinoline-4-carboxamide]	85.3
Cc1ccc2nc(C)cc(C(=O)Nc3c(C)nn(Cc4cccc(C#N)c4)c3C)c2c1 [Example 1283]	6250
Cc1nn(CC(=O)N(C)c2ccc(F)cc2)c(C)c1NC(=O)c1cc(C(N)=O)nc2ccccc12 [Example 1693]	43.6
CC(=O)c1cccc(Cn2nc(C(F)(F)F)c(NC(=O)c3cc(C(N)=O)nc4cccc(F)c34)c2C)c1 [Example 1620]	96.3
Cc1nn(Cc2ccccc2F)c(C)c1NC(=O)c1cc(C(F)(F)F)nc2c(Cl)cc(Cl)cc12 [Example 94, 6,8-dichloro-N-[1-(2-fluorobenzyl)-3,5-dimethyl-1H-pyrazol-4-yl]-2-(trifluoromethyl)quinoline-4-carboxamide]	304
COc1ccc(CCn2nc(C)c(NC(=O)c3cc(OC)nc4ccccc34)c2C)cc1 [Example 1341]	297
Cc1nn(Cc2ccc(C(=O)NCCC3CCCN3C)cc2)c(C)c1NC(=O)c1cc(C(F)(F)F)nc2ccc(Br)cc12 (centres unmarked) [Example 1216]	673
Cc1ccc2nc(C)cc(C(=O)Nc3c(C)nn(Cc4ccc(F)cc4F)c3C)c2c1 [Example 96, N-[1-(2,4-difluorobenzyl)-3,5-dimethyl-1H-pyrazol-4-yl]-2,6-dimethylquinoline-4-carboxamide]	344
Cc1nn(Cc2ccccc2OC(F)(F)F)c(C)c1NC(=O)c1cc(C(F)(F)F)nc2c(Cl)cc(Cl)cc12 [Example 1288]	6250
Cc1c(NC(=O)c2cc(C(F)(F)F)nc3ccc(Br)cc23)c(C(F)(F)F)nn1C(C)c1ccccc1 (racemic) [Example 1398]	38.9
Cc1nn(CC(=O)Nc2cccc(C#N)c2)c(C)c1NC(=O)c1cc(C(N)=O)nc2ccccc12 [Example 1691]	556
COc1ccc(CNC(=O)c2ccc(Cn3nc(C)c(NC(=O)c4cc(C(F)(F)F)nc5ccc(Br)cc45)c3C)cc2)cc1 [Example 1229]	999

Continued, values first:

IC50 [nM]	Compound
1.3	Cc1c(NC(=O)c2cc(C(N)=O)nc3cc(F)c(Cl)cc23)c(C(F)(F)F)nn1Cc1ccc(C#N)cn1 [Example 359, 6-chloro-N^4-{1-[(5-cyanopyridin-2-yl)methyl]-5-methyl-3-(trifluoromethyl)-1H-pyrazol-4-yl}-7-fluoroquinoline-2,4-dicarboxamide]
3.4	Cc1nn(Cc2ccc(C#N)c(F)c2)c(C)c1NC(=O)c1cc(C(F)(F)F)nc2ccc(Br)cc12 [Example 218, 6-bromo-N-[1-(4-cyano-3-fluorobenzyl)-3,5-dimethyl-1H-pyrazol-4-yl]-2-(trifluoromethyl)quinoline-4-carboxamide]
1.2	Cc1cc(Cn2nc(C)c(NC(=O)c3cc(C(N)=O)nc4cc(F)ccc34)c2C)ccc1C#N [Example 1698]
15.4	Cc1nn(Cc2ccc(F)cc2)c(C)c1NC(=O)c1cc(C(F)(F)F)nc2ccc(Cl)c(Cl)c12 [Example 22, 5,6-dichloro-N-[1-(4-fluorobenzyl)-3,5-dimethyl-1H-pyrazol-4-yl]-2-(trifluoromethyl)quinoline-4-carboxamide]
38.9	COc1ccc(CCn2nc(C)c(NC(=O)c3cc(C(N)=O)nc4ccccc34)c2C)cc1 [Example 1353]
34.8	Cc1c(NC(=O)c2cc(C(N)=O)nc3cc(F)ccc23)c(C(F)(F)F)nn1Cc1cc(C2CC2)on1 [Example 1550]
4.9	Cc1c(NC(=O)c2cc(C(N)=O)nc3ccc(O)cc23)c(C(F)(F)F)nn1Cc1ccc(C#N)cc1 [Example 425, N^4-[1-(4-cyanobenzyl)-5-methyl-3-(trifluoromethyl)-1H-pyrazol-4-yl]-6-hydroxyquinoline-2,4-dicarboxamide]
14.8	Cc1cc(Br)c2nc(C(F)(F)F)cc(C(=O)Nc3c(C)nn(Cc4ccc(F)cc4)c3C)c2c1 [Example 21, 8-bromo-N-[1-(4-fluorobenzyl)-3,5-dimethyl-1H-pyrazol-4-yl]-6-methyl-2-(trifluoromethyl)quinoline-4-carboxamide]
5.8	COCCNc1ccc2nc(C(N)=O)cc(C(=O)Nc3c(C(F)(F)F)nn(Cc4ccc(C#N)cc4)c3C)c2c1 [Example 344, N^4-[1-(4-cyanobenzyl)-5-methyl-3-(trifluoromethyl)-1H-pyrazol-4-yl]-6-[(2-methoxyethyl)amino]quinoline-2,4-dicarboxamide]
15.5	Cc1ccccc1Cn1nc(C)c(NC(=O)c2cc(C(F)(F)F)nc3ccc(Br)cc23)c1C [Example 24, 6-bromo-N-[3,5-dimethyl-1-(2-methylbenzyl)-1H-pyrazol-4-yl]-2-(trifluoromethyl)quinoline-4-carboxamide]
1	COc1cc2c(C(=O)Nc3c(C(F)(F)F)nn(Cc4ccc(C#N)cc4)c3C)cc(C(N)=O)nc2cc1F [Example 242, N^4-[1-(4-cyanobenzyl)-5-methyl-3-(trifluoromethyl)-1H-pyrazol-4-yl]-7-fluoro-6-methoxyquinoline-2,4-dicarboxamide]
29.5	Cc1c(NC(=O)c2cc(C(F)(F)F)nc3c(Cl)cc(Cl)cc23)c(C(F)(F)F)nn1Cc1ccc(F)cc1 [Example 38, 6,8-dichloro-N-[1-(4-fluorobenzyl)-5-methyl-3-(trifluoromethyl)-1H-pyrazol-4-yl]-2-(trifluoromethyl)quinoline-4-carboxamide]
29.3	Cc1c(NC(=O)c2cc(C(N)=O)nc3cc(F)c(Cl)cc23)c(C(F)(F)F)nn1Cc1ccncc1 [Example 1368]
18.7	COc1cccc(Cn2nc(C(F)(F)F)c(NC(=O)c3cc(C(N)=O)nc4cccc(F)c34)c2C)c1 [Example 1449]
15.3	Cc1nn(Cc2ccc(C(=O)NCC3CCCO3)cc2)c(C)c1NC(=O)c1cc(C(F)(F)F)nc2ccc(Br)cc12 (centres unmarked) [Example 1058]
6.4	Cc1nn(Cc2cccnc2C#N)c(C)c1NC(=O)c1cc(C(N)=O)nc2cc(F)c(F)cc12 [Example 220, N^4-{1-[(2-cyanopyridin-3-yl)methyl]-3,5-dimethyl-1H-pyrazol-4-yl}-6,7-difluoroquinoline-2,4-dicarboxamide]
6.6	Cc1c(NC(=O)c2cc(C(N)=O)nc3cc(F)c(F)cc23)c(C(F)(F)F)nn1Cc1ccc(C#N)cn1 [Example 364, N^4-{1-[(5-cyanopyridin-2-yl)methyl]-5-methyl-3-(trifluoromethyl)-1H-pyrazol-4-yl}-6,7-difluoroquinoline-2,4-dicarboxamide]
18.6	Cc1c(NC(=O)c2cc(C(N)=O)nc3ccccc23)c(C(F)(F)F)nn1Cc1ccc(C#N)s1 [Example 1679]
11.5	Cc1nn(Cc2ccc(F)cc2)c(C)c1NC(=O)c1cc(C(F)(F)F)nc2ccc(Cl)cc12 [Example 14, 6-chloro-N-[1-(4-fluorobenzyl)-3,5-dimethyl-1H-pyrazol-4-yl]-2-(trifluoromethyl)quinoline-4-carboxamide]
12.9	Cc1c(NC(=O)c2cc(C(N)=O)nc3cc(F)c(Cl)cc23)c(C(F)(F)F)nn1Cc1ccc(OC(F)(F)F)cc1 [Example 1468]

— patent US20170037028A1 (BAYER PHARMA AKTIENGESELLSCHAFT, priority 2013, published 2017)
